# Measured values published in ChEMBL document CHEMBL1201862, “PubChem BioAssay data set” (2004).
#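 Cells were grown in 96-well plates and exposed to each compound for 48 hours at five concentrations; endpoints were interpolated linearly between bracketing concentrations, or set to the highest concentration if not reached. The concentration for 50% growth inhibition is given as GI50.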 Activity calls are given as the source filed them. Cut-off read from the data, not from the text of the source: active = GI50 up to about 1.1 µM and inactive = higher.
# What was measured:
# Assay in all cases: NCI-60 cell line screen, 48 h
# [1] = test system: HOP-62
# [2] = test system: OVCAR-3
# [3] = test system: SK-MEL-5
# [4] = test system: NCI-H522
# [5] = test system: CAKI-1
# [6] = test system: HCT-116
# [7] = test system: Malme-3M
# [8] = test system: A498
# [9] = test system: DU-145
# [10] = test system: NCI-H23
# [11] = test system: CCRF-CEM
# [12] = test system: SK-OV-3
# [13] = test system: ACHN
# [14] = test system: HCT-15
# [15] = test system: EKVX
# [16] = test system: SN12C
# [17] = test system: OVCAR-8
# [18] = test system: HT-29
# [19] = test system: SK-MEL-28
# [20] = test system: PC-3
# [21] = test system: OVCAR-4
# [22] = test system: SR
# [23] = test system: NCI/ADR-RES
# [24] = test system: A549
# [25] = test system: RPMI-8226
# [26] = test system: MDA-N
# [27] = test system: SF-295
# [28] = test system: KM12
# [29] = test system: NCI-H226
# [30] = test system: UACC-62
# [31] = test system: Hs-578T
# [32] = test system: NCI-H460
# [33] = test system: U-251
# [34] = test system: IGROV-1
# [35] = test system: T47D
# [36] = test system: RXF 393
# [37] = test system: M14
# [38] = test system: SK-MEL-2
# [39] = test system: SNB-19
# [40] = test system: LOX IMVI
# [41] = test system: UO-31
# [42] = test system: MCF7
# [43] = test system: SNB-75
# [44] = test system: MOLT-4
# [45] = test system: UACC-257
# [46] = test system: BT-549
# [47] = test system: TK-10
# [48] = test system: SW-620
# [49] = test system: MDA-MB-435
# [50] = test system: OVCAR-5
# [51] = test system: 786-0
# [52] = test system: COLO 205
# [53] = test system: MDA-MB-231
# [54] = test system: K562
# [55] = test system: HOP-92
# [56] = test system: SF-268
# [57] = test system: HCC 2998
# [58] = test system: SF-539
smiles,measurement,setting,value
COc1cccc(C23CCCC(C2)NCC3Br)c1OC (stereo not given),GI50,[1],38 µM (inactive)
same,GI50,[2],34.5 µM (inactive)
same,GI50,[3],2.55 µM (inactive)
same,GI50,[4],10.2 µM (inactive)
same,GI50,[5],41.6 µM (inactive)
same,GI50,[6],30.8 µM (inactive)
same,GI50,[7],> 100 µM (inactive)
same,GI50,[8],15.4 µM (inactive)
same,GI50,[9],53.8 µM (inactive)
same,GI50,[10],15.3 µM (inactive)
same,GI50,[11],21.9 µM (inactive)
same,GI50,[12],> 100 µM (inactive)
same,GI50,[13],21 µM (inactive)
same,GI50,[14],40.9 µM
same,GI50,[15],28.4 µM (inactive)
same,GI50,[16],31 µM (inactive)
same,GI50,[17],11.2 µM (inactive)
same,GI50,[18],37.3 µM (inactive)
same,GI50,[19],48 µM (inactive)
same,GI50,[20],30.5 µM (inactive)
same,GI50,[21],35 µM (inactive)
same,GI50,[22],31.3 µM (inactive)
same,GI50,[23],31.1 µM (inactive)
same,GI50,[24],3.66 µM (inactive)
same,GI50,[25],19.2 µM (inactive)
same,GI50,[26],48.4 µM (inactive)
same,GI50,[27],38 µM (inactive)
same,GI50,[28],35.1 µM (inactive)
same,GI50,[29],0.154 µM (active)
same,GI50,[30],21.4 µM (inactive)
same,GI50,[31],19.7 µM (inactive)
same,GI50,[32],17.9 µM (inactive)
same,GI50,[33],28.4 µM (inactive)
same,GI50,[34],75.7 µM (inactive)
same,GI50,[35],26.3 µM (inactive)
same,GI50,[36],92.3 µM (inactive)
same,GI50,[37],34.4 µM (inactive)
same,GI50,[38],> 100 µM (inactive)
same,GI50,[39],42.3 µM (inactive)
same,GI50,[40],37.5 µM (inactive)
same,GI50,[41],47.4 µM (inactive)
same,GI50,[42],21.6 µM (inactive)
same,GI50,[43],28.1 µM (inactive)
same,GI50,[44],45 µM (inactive)
same,GI50,[45],8.39 µM (inactive)
same,GI50,[46],15.6 µM (inactive)
same,GI50,[47],36.9 µM (inactive)
same,GI50,[48],35.6 µM (inactive)
same,GI50,[49],39 µM (inactive)
same,GI50,[50],56.2 µM (inactive)
same,GI50,[51],81.3 µM (inactive)
same,GI50,[52],11.9 µM (inactive)
same,GI50,[53],> 100 µM (inactive)
same,GI50,[54],21.5 µM (inactive)
same,GI50,[55],27.9 µM (inactive)
same,GI50,[56],23 µM (inactive)
COc1cccc(/N=N/C(=N/NC(=O)c2cc(Cl)ccc2O)c2ccc(N(CCC#N)CCC#N)cc2C)c1,GI50,[1],66.5 µM (inactive)
same,GI50,[2],2.06 µM (inactive)
same,GI50,[3],29.9 µM (inactive)
same,GI50,[4],9.1 µM (inactive)
same,GI50,[5],48.3 µM (inactive)
same,GI50,[6],18.8 µM (inactive)
same,GI50,[7],17.5 µM (inactive)
same,GI50,[8],26.4 µM (inactive)
same,GI50,[9],43.4 µM (inactive)
same,GI50,[10],35 µM (inactive)
same,GI50,[11],15.3 µM (inactive)
same,GI50,[12],52 µM (inactive)
same,GI50,[13],46.3 µM (inactive)
same,GI50,[14],33.3 µM
same,GI50,[15],20.3 µM (inactive)
same,GI50,[57],23.6 µM (inactive)
same,GI50,[16],27.5 µM (inactive)
same,GI50,[17],16.9 µM (inactive)
same,GI50,[18],5.85 µM (inactive)
same,GI50,[20],23.2 µM (inactive)
same,GI50,[21],19.8 µM (inactive)
same,GI50,[22],21.2 µM (inactive)
same,GI50,[23],49 µM (inactive)
same,GI50,[24],62.1 µM (inactive)
same,GI50,[25],61.2 µM (inactive)
same,GI50,[26],41.1 µM (inactive)
same,GI50,[27],37.3 µM (inactive)
same,GI50,[28],28.5 µM (inactive)
same,GI50,[29],26.2 µM (inactive)
same,GI50,[30],44.6 µM (inactive)
same,GI50,[31],33.2 µM (inactive)
same,GI50,[32],32.7 µM (inactive)
same,GI50,[33],38.3 µM (inactive)
same,GI50,[34],23.3 µM (inactive)
same,GI50,[35],7.35 µM (inactive)
same,GI50,[36],38.1 µM (inactive)
same,GI50,[37],42.3 µM (inactive)
same,GI50,[38],57 µM (inactive)
same,GI50,[39],53.5 µM (inactive)
same,GI50,[41],38.8 µM (inactive)
same,GI50,[42],7.8 µM (inactive)
same,GI50,[43],21.4 µM (inactive)
same,GI50,[58],18.4 µM (inactive)
same,GI50,[44],19.1 µM (inactive)
same,GI50,[45],10.1 µM (inactive)
same,GI50,[46],34.3 µM (inactive)
same,GI50,[47],48.8 µM (inactive)
same,GI50,[49],64.4 µM (inactive)
same,GI50,[50],> 100 µM (inactive)
same,GI50,[51],43.3 µM (inactive)
same,GI50,[52],6.21 µM (inactive)
same,GI50,[53],35.1 µM (inactive)
same,GI50,[54],21.3 µM (inactive)
same,GI50,[56],47.1 µM (inactive)
Cc1cccc(NC(=S)NNC(=O)c2cc(-c3ccccc3)nc3ccccc23)c1,GI50,[1],32 µM (inactive)
same,GI50,[2],26.8 µM (inactive)
same,GI50,[3],19.9 µM (inactive)
same,GI50,[4],26.2 µM (inactive)
same,GI50,[5],32.7 µM (inactive)
same,GI50,[6],20.8 µM (inactive)
same,GI50,[7],25 µM (inactive)
same,GI50,[8],20.2 µM (inactive)
same,GI50,[9],34.4 µM (inactive)
same,GI50,[10],27.9 µM (inactive)
same,GI50,[11],12.7 µM (inactive)
same,GI50,[12],25.6 µM (inactive)
same,GI50,[13],36.1 µM (inactive)
same,GI50,[14],36.7 µM
same,GI50,[57],25.1 µM (inactive)
same,GI50,[16],40.1 µM (inactive)
same,GI50,[17],39.8 µM (inactive)
same,GI50,[18],34.7 µM (inactive)
same,GI50,[19],38.4 µM (inactive)
same,GI50,[20],27.5 µM (inactive)
same,GI50,[21],57.9 µM (inactive)
same,GI50,[22],17.9 µM (inactive)
same,GI50,[23],36.7 µM (inactive)
same,GI50,[24],25.4 µM (inactive)
same,GI50,[25],30.1 µM (inactive)
same,GI50,[26],45.7 µM (inactive)
same,GI50,[28],31.8 µM (inactive)
same,GI50,[29],34.4 µM (inactive)
same,GI50,[30],38.5 µM (inactive)
same,GI50,[31],37 µM (inactive)
same,GI50,[32],30.9 µM (inactive)
same,GI50,[33],30.1 µM (inactive)
same,GI50,[34],33.6 µM (inactive)
same,GI50,[35],34.1 µM (inactive)
same,GI50,[36],25.4 µM (inactive)
same,GI50,[37],35 µM (inactive)
same,GI50,[38],21.8 µM (inactive)
same,GI50,[39],37.8 µM (inactive)
same,GI50,[41],23.1 µM (inactive)
same,GI50,[42],20.5 µM (inactive)
same,GI50,[43],36.6 µM (inactive)
same,GI50,[58],21.8 µM (inactive)
same,GI50,[44],27.5 µM (inactive)
same,GI50,[45],33.4 µM (inactive)
same,GI50,[46],47.9 µM (inactive)
same,GI50,[47],40.4 µM (inactive)
same,GI50,[48],36.3 µM (inactive)
same,GI50,[49],28.4 µM (inactive)
same,GI50,[50],35.5 µM (inactive)
same,GI50,[51],29.7 µM (inactive)
same,GI50,[52],19.5 µM (inactive)
same,GI50,[53],27.9 µM (inactive)
same,GI50,[54],41.5 µM (inactive)
same,GI50,[55],26.2 µM (inactive)
same,GI50,[56],42 µM (inactive)
